Measurements: the supplement of paper PMC4862054

Key:
Conditions in all cases: incubation time: 72 h
HCC1599 [1] = assay: drug sensitivity score (DSS), CellTox Green (DSS (AUC-based score)); higher = stronger drug effect (viability inhibition or cytotoxicity); extreme values may be limits of the assay
Outline: (§1)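 The drug sensitivity score reflects the area under a fitted dose-response curve. To obtain it, breast cancer cells in 20 µl suspension were seeded into 384-well plates containing compound at 5 concentrations, 10-fold apart over a compound-specific 10,000-fold range, and incubated 72 h. CellTox Green fluorescence (485/520 nm) was read first and CellTiter-Glo luminescence second, after 10 min at room temperature. Each plate was normalised to 0.1 % DMSO and a positive kill control.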

MDA-MB-468 [2] = assay: as above
Outline: as §1

HCC1143 [3] = assay: as above
Outline: as §1

BT-549 [4] = assay: as above
Outline: as §1

CAL-120 [5] = assay: as above
Outline: as §1

MDA-MB-453 [6] = assay: as above
Outline: as §1

CAL-51 [7] = assay: as above
Outline: as §1

DU-4475 [8] = assay: as above
Outline: as §1

HCC1599 [9] = assay: drug sensitivity score (DSS), CellTiter-Glo (DSS (AUC-based score)); higher = stronger drug effect (viability inhibition or cytotoxicity); extreme values may be limits of the assay
Outline: as §1

MDA-MB-468 [10] = assay: as above
Outline: as §1

MDA-MB-436 = assay: as above
Outline: as §1

HCC1143 [11] = assay: as above
Outline: as §1

BT-549 [12] = assay: as above
Outline: as §1

SK-BR-3 = assay: as above
Outline: as §1

CAL-120 [13] = assay: as above
Outline: as §1

MCF-10A = assay: as above
Outline: as §1

CAL-85-1 = assay: as above
Outline: as §1

HCC1937 = assay: as above
Outline: as §1

MDA-MB-453 [14] = assay: as above
Outline: as §1

Hs578T = assay: as above
Outline: as §1

BT-474 = assay: as above
Outline: as §1

MFM-223 = assay: as above
Outline: as §1

CAL-148 = assay: as above
Outline: as §1

HDQ-P1 = assay: as above
Outline: as §1

CAL-51 [15] = assay: as above
Outline: as §1

DU-4475 [16] = assay: as above
Outline: as §1

MDA-MB-231 = assay: as above
Outline: as §1

| SMILES | drug sensitivity score (HCC1599 [1]) | drug sensitivity score (MDA-MB-468 [2]) | drug sensitivity score (HCC1143 [3]) | drug sensitivity score (BT-549 [4]) | drug sensitivity score (CAL-120 [5]) | drug sensitivity score (MDA-MB-453 [6]) | drug sensitivity score (CAL-51 [7]) | drug sensitivity score (DU-4475 [8]) | drug sensitivity score (HCC1599 [9]) | drug sensitivity score (MDA-MB-468 [10]) | drug sensitivity score (MDA-MB-436) | drug sensitivity score (HCC1143 [11]) | drug sensitivity score (BT-549 [12]) | drug sensitivity score (SK-BR-3) | drug sensitivity score (CAL-120 [13]) | drug sensitivity score (MCF-10A) | drug sensitivity score (CAL-85-1) | drug sensitivity score (HCC1937) | drug sensitivity score (MDA-MB-453 [14]) | drug sensitivity score (Hs578T) | drug sensitivity score (BT-474) | drug sensitivity score (MFM-223) | drug sensitivity score (CAL-148) | drug sensitivity score (HDQ-P1) | drug sensitivity score (CAL-51 [15]) | drug sensitivity score (DU-4475 [16]) | drug sensitivity score (MDA-MB-231) |
| --- | --- | --- | --- | --- | --- | --- | --- | --- | --- | --- | --- | --- | --- | --- | --- | --- | --- | --- | --- | --- | --- | --- | --- | --- | --- | --- | --- |
| CCN1CCN(c2ccc(Nc3cc(N(C)C(=O)Nc4c(Cl)c(OC)cc(OC)c4Cl)ncn3)cc2)CC1 [NVP-BGJ398] | 0 | 0 | 0 | 0 | 0.0505 | 0 | 0 | 0 | 0 | 0 | 0 | 0 | 0 | 0 | 2.55 | 0 | 0 | 0 | 0 | 0.39 | 0 | 7.35 | 0 | 0 | 0 | 0 | 0 |
| COc1cccc2cc(-c3nc([C@H]4CC[C@H](C(=O)O)CC4)n4ncnc(N)c34)[nH]c12 [OSI-027] | 0 | 0 | 0 | 0 | 0 | 0 | 0 | 0 | 0 | 4.37 | 4.39 | 2.97 | 6.24 | 13.4 | 5.45 | 4.28 | 5.52 | 3.56 | 8 | 2.44 | 4.09 | 6.51 | 2.6 | 7.43 | 4.69 | 2.39 | 3.06 |
| OC[C@H]1O[C@@H](n2cnc3c2N=CNC[C@H]3O)C[C@@H]1O [Pentostatin] | 0 | 0 | 0 | 0 | 0 | 0 | 0 | 0 | 0 | 0 | 0 | 0 | 0 | 0 | 0 | 0 | 0 | 0 | 0 | 0 | 0.0029 | 0 | 0 | 0 | 0 | 0 | 0 |
| N#CC[C@H](C1CCCC1)n1cc(-c2ncnc3[nH]ccc23)cn1 [Ruxolitinib] | 0 | 0 | 0 | 0 | 0 | 0 | 0 | 0 | 0 | 0.173 | 0 | 0 | 0 | 0 | 1.35 | 0 | 0 | 0 | 0 | 0 | 0.693 | 1.49 | 0 | 0 | 0 | 0 | 0 |
| C=CC[C@@H]1/C=C(\C)C[C@H](C)C[C@H](OC)[C@H]2O[C@@](O)(C(=O)C(=O)N3CCCC[C@H]3C(=O)O[C@H](/C(C)=C/[C@@H]3CC[C@@H](O)[C@H](OC)C3)[C@H](C)[C@@H](O)CC1=O)[C@H](C)C[C@@H]2OC [Tacrolimus] | 0 | 0 | 0 | 0 | 0 | 0 | 0 | 0 | 0 | 0 | 0 | 0 | 0 | 0 | 0 | 0 | 0 | 0 | 0 | 0 | 0.128 | 0 | 0 | 0 | 0 | 0 | 0 |
